The results in this text go back to US20100035871A1, “BENZOXAZINE DERIVATIVES AND USES THEREOF” (priority 2006, published 2010).

The structures appear in SMILES notation.

By Emax is commonly meant the size of the effect at its maximum, as opposed to the concentration needed. By EC50 is commonly meant the concentration giving half of the maximal effect. A word on the Ki: it is a dissociation constant, usually derived from enzyme kinetics or from competition with a known ligand.

Test [1] deals with T1, human 5-HT2C receptor (Homo sapiens, UniProt P28335).
T1 construct: expressed in transfected cells; host or cells: CHO (Chinese Hamster Ovary) cells; membrane preparation
T1 sequence (P28335 33-458): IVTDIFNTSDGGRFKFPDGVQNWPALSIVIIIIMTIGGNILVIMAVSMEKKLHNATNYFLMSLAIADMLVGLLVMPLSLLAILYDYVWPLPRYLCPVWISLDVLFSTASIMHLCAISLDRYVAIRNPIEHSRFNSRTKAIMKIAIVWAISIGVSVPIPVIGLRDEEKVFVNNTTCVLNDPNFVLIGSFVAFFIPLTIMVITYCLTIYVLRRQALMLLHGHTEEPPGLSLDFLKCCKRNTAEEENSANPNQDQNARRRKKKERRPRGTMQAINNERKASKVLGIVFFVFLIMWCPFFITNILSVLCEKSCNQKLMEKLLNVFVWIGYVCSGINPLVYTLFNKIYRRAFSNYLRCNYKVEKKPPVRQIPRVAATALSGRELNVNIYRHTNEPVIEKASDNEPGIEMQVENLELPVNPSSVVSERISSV
Description: 5-HT2C receptor-stimulated calcium mobilization (FLIPR) in CHO cells. The conditions noted are these: for Emax: CHO, read-out: 5-HT2C Function EMax (%); for EC50: calcium mobilization, CHO cells, read-out: 5-HT2C Function EC50. The format is cell-based. A general note: A change in cytosolic calcium serves as a functional read-out for many receptors and channels.

The target of test [2] is T1, human 5-HT2C receptor. Briefly: 5-HT2C receptor binding, [125I]DOI displacement, membranes of transfected CHO cells. The conditions noted are these: read-out: 5-HT2C Binding Ki avg.

With `Cc1cc(Cl)ccc1-c1cccc2c1OC(CN)CN2C` (racemic) [Example 2, 1-[8-(4-Chloro-2-methylphenyl)-4-methyl-3,4-dihydro-2H-1,4-benzoxazin-2-yl]methanamine], on human 5-HT2C receptor [1], the Emax was 70% and the EC50 came to 280 nM. For the same compound, on human 5-HT2C receptor [2], the Ki is 14.8 nM.
The corresponding values for `COc1ccc(-c2cc(Cl)cc3c2NC(CN)CO3)c(Cl)c1` (racemic) [Example 32, 1-[7-chloro-5-(2-chloro-4-methoxyphenyl)-3,4-dihydro-2H-1,4-benzoxazin-3-yl]methanamine] are 57%, 1010 nM and 29.5 nM.
Regarding `COc1ccc(-c2cccc3c2O[C@@H](CN)CN3)c(C)c1` [Example 50, 1-[(2S)-8-(4-methoxy-2-methylphenyl)-3,4-dihydro-2H-1,4-benzoxazin-2-yl]methanamine], on human 5-HT2C receptor [1], the Emax worked out at 74% and the EC50 was found to be 0.72 nM. Further, the Ki on human 5-HT2C receptor [2] was determined as 33.3 nM.
Turning to `COc1ccc(-c2cccc3c2OC(CN)CN3)c(C)c1` (racemic) [Example 24, 1-[8-(4-Methoxy-2-methylphenyl)-3,4-dihydro-2H-1,4-benzoxazin-2-yl]methanamine], on human 5-HT2C receptor [1], the Emax was determined as 75% and the concentration for a half-maximal effect (EC50) was determined as 25 nM. Also, the Ki on human 5-HT2C receptor [2] stood at 14.9 nM.
In the case of `Cc1ccc(-c2cc(Cl)cc3c2NC(CN)CO3)c(C(F)(F)F)c1` (racemic) [Example 31, 1-{7-chloro-5-[4-methyl-2-(trifluoromethyl)phenyl]-3,4-dihydro-2H-1,4-benzoxazin-3-yl}methanamine], at human 5-HT2C receptor [1], the maximal effect (Emax) was found to be 60% and the half-maximal effective concentration (EC50) was found to be 876 nM. In addition, on human 5-HT2C receptor [2], the Ki is 30.5 nM.
Turning to `COc1ccc(-c2cc(F)cc3c2NC(CN)CO3)c(Cl)c1` (racemic) [Example 59, 1-[5-(2-chloro-4-methoxyphenyl)-7-fluoro-3,4-dihydro-2H-1,4-benzoxazin-3-yl]methanamine], on human 5-HT2C receptor [1], the maximum response (Emax) was found to be 59% and the EC50 worked out at 138 nM. Moreover, the Ki at human 5-HT2C receptor [2] came out at 36.9 nM.
The corresponding values for `NCC1CNc2cccc(-c3ccc(Cl)cc3C(F)(F)F)c2O1` (racemic) [Example 18, 1-{8-[4-Chloro-2-(trifluoromethyl)phenyl]-3,4-dihydro-2H-1,4-benzoxazin-2-yl}methanamine] are 56%, 109 nM and 7.9 nM.
As to `CN1CC(CN)Oc2c(-c3ccccc3C(F)(F)F)cccc21` (racemic) [Example 4, 1-{4-Methyl-8-[2-(trifluoromethyl)phenyl]-3,4-dihydro-2H-1,4-benzoxazin-2-yl}methanamine], at human 5-HT2C receptor [1], the maximum response (Emax) came out at 70% and the EC50 was 62 nM. In addition, the Ki at human 5-HT2C receptor [2] was determined as 8.6 nM.
As to `COc1ccc(-c2cc(Cl)cc3c2NC(CN)CO3)c(C)c1` (racemic) [Example 27, 1-[7-chloro-5-(4-methoxy-2-methylphenyl)-3,4-dihydro-2H-1,4-benzoxazin-3-yl]methanamine], on human 5-HT2C receptor [1], the Emax was determined as 47% and the EC50 is 1290 nM. Besides, the Ki on human 5-HT2C receptor [2] amounted to 53.2 nM.
On the same counts, the results for `NCC1CNc2cccc(-c3cc(Cl)ccc3Cl)c2O1` (racemic) [Example 14, 1-[8-(2,5-Dichlorophenyl)-3,4-dihydro-2H-1,4-benzoxazin-2-yl]methanamine] are 60%, 12 nM and 6.4 nM.
Take `NCC1CNc2cccc(-c3ccccc3C(F)(F)F)c2O1` (racemic) [Example 22, 1-{8-[2-(Trifluoromethyl)phenyl]-3,4-dihydro-2H-1,4-benzoxazin-2-yl}methanamine]: on human 5-HT2C receptor [1], the Emax worked out at 72% and the half-maximal effective concentration (EC50) worked out at 39 nM. At human 5-HT2C receptor [2], the Ki is 7.2 nM.
Take `COc1ccccc1-c1cccc2c1OC(CN)CN2C` (racemic) [Example 1, 1-[8-(2-Methoxyphenyl)-4-methyl-3,4-dihydro-2H-1,4-benzoxazin-2-yl]methanamine]: at human 5-HT2C receptor [1], the Emax came to 60% and the EC50 was found to be 49 nM. For the same compound, at human 5-HT2C receptor [2], the Ki came to 46.5 nM.
